In patent publication US20130165520A1, “Hybrid Molecule Having Mixed Retinoic Acid Receptor Agonism and Histone Deacetylase Inhibitory Properties” (priority 2010, published 2013):

How the values were obtained:
SK-MEL-5 = SK-MEL-5 (Melanoma); 48 h
HOP-62 [1] = assay: cells; settings: Homo sapiens, HOP-62, 48 h
HT29 = HT29 (Colon); 48 h
MDA-MB-435 = MDA-MB-435 (Melanoma); 48 h
HL-60(TB) = HL-60(TB) (Leukemia); 48 h
[2] = system: RAR target genes in MDA-MB-231 cell line; assay: RT-qPCR analysis of RAR and HDACi target genes; assay type: cell-based
Source text: The agonist activity of 3 through its effects on RAR target genes was subsequently analyzed (FIG. 3).

HS578T = assay: cells; settings: Homo sapiens, Hs-578T, 48 h
[3] = system: NCI-60 panel of human tumor cell lines; assay: NCI-60 in vitro cancer screen (SRB), whole panel; assay type: cell-based; settings: all cell lines, read-out: GC-50 values, range over all cell lines
Protocol: Both RARs and HDACs are ubiquitously expressed in cell lines and tissue. It was therefore surmised that hybrid 3 could display cytotoxic activities in a wide variety of cell lines.
The human tumor cell lines of the cancer screening panel are grown in RPMI 1640 medium containing 5% fetal bovine serum and 2 mM L-glutamine. For a typical screening experiment, cells are inoculated into 96 well microtiter plates in 100 μL at plating densities ranging from 5,000 to 40,000 cells/well depending on the doubling time of individual cell lines. After cell inoculation, the microtiter plates are incubated at 37° C., 5% CO2, 95% air and 100% relative humidity for 24 h prior to addition of experimental drugs. […]
Following drug addition, the plates are incubated for an additional 48 h at 37° C., 5% CO2, 95% air, and 100% relative humidity. […] Bound stain is subsequently solubilized with 10 mM trizma base, and the absorbance is read on an automated plate reader at a wavelength of 515 nm. […] Using the absorbance measurements [time zero, (Tz), control growth, (C), and test growth in the presence of drug at the five concentration levels (Ti)], the percentage growth is calculated at each of the drug concentration levels. Percentage growth inhibition is calculated as: [(Ti-Tz)/(C-Tz)]×100 for concentrations for which Ti>/=Tz; and [(Ti-Tz)/Tz]×100 for concentrations for which Ti<Tz. […]

K-562 = K-562 (Leukemia); 48 h
LOX IMVI = assay: cells; settings: Homo sapiens, 48 h
SF-295 = SF-295 (CNS); 48 h
NCI-H522 = assay: cells; settings: Homo sapiens, NCI-H522, 48 h
CCRF-CEM = assay: cells; settings: Homo sapiens, 48 h
MCF7 = MCF7 (Breast); 48 h
CAKI-1 = assay: cells; settings: Homo sapiens, CAKI-1, 48 h
KM12 = KM12 (Colon); 48 h
HOP-62 [4] = settings: HOP-62 (Non-Small cell lung cancer); 48 h
A549/ATCC = A549/ATCC (Non-Small cell lung cancer); 48 h
HCT-116 = assay: cells; settings: Homo sapiens, HCT-116, 48 h

CC1(C)CCC(C)(C)c2cc(-c3ccc4cc(C(=O)NO)ccc4c3)ccc21 [hybrid 3]
TGI (SK-MEL-5): 2310 nM | GI50 (HOP-62 [1]): 616 nM | CC50 (HOP-62 [1]; read-out: LC50): 6180 nM | TGI (HT29): 2340 nM | TGI (MDA-MB-435): 2540 nM | TGI (HL-60(TB)): 1520 nM | regulation of HDACi-regulated genes RARB1 and CyclinD1 ([2]; MDA-MB-231): follow similar regulation | induction of RAR target genes (RT-qPCR) ([2]; MDA-MB-231 cell line): clear induction of RARB2 and DHRS3 | GI50 (HS578T): 3020 nM | CC50 (HS578T; read-out: LC50): 64800 nM | IC50 [3]: 302 to 4300 nM | TGI (K-562): 1460 nM | GI50 (LOX IMVI): 372 nM | CC50 (LOX IMVI; read-out: LC50): 4190 nM | TGI (SF-295): 1770 nM | GI50 (NCI-H522): 1620 nM | CC50 (NCI-H522; read-out: LC50): 7980 nM | GI50 (CCRF-CEM): 306 nM | CC50 (CCRF-CEM; read-out: LC50): > 100000 nM | TGI (MCF7): 1680 nM | GI50 (CAKI-1): 302 nM | CC50 (CAKI-1; read-out: LC50): 4310 nM | TGI (KM12): 1880 nM | TGI (HOP-62 [4]): 2190 nM | TGI (A549/ATCC): 2150 nM | GI50 (HCT-116): 424 nM | CC50 (HCT-116; read-out: LC50): 4030 nM
